Calls of active or inactive are those of the source. No cut-off for these calls is given here.
Tests used:
RAW264.7 [1] = assay: Inhibition of LPS-induced TNFalpha production in mouse RAW264.7 cells at 50 uM preincubated for 2 hrs followed by LPS treatment for 24 hrs by RT-qPCR analysis relative to control; type: functional; settings: time 26 hrs
RAW264.7 [2] = assay: Inhibition of LPS-induced TNFalpha production in mouse RAW264.7 cells preincubated for 2 hrs followed by LPS treatment for 24 hrs by RT-qPCR analysis; type: functional, cell-based
Peritoneal macrophage = assay: Inhibition of LPS-induced TNFalpha production in mouse peritoneal macrophage at 2.6 uM incubated overnight by immunoassay relative to control; type: functional
Mus musculus [3] = assay: Antiinflammatory activity against DSS-induced C57BL/6 mouse model of acute ulcerative colitis assessed as inhibition ratio of IL-23 protein expression at 50 mg/kg, IG via gavage measured after 7 days by ELISA relative to control; type: functional; parameters: scale not given: the % may be the effect or the level left; settings: time 7 day
Mus musculus [4] = assay: Anti-ulcerative colitis activity in DSS-induced C57BL/6 mouse ulcerative colitis model assessed as histopathological score recovery ratio at 50 mg/kg, IG via gavage measured after 7 days by H and E staining method relative to control; type: functional; settings: time 7 day
Mus musculus [5] = assay: Antiinflammatory activity against IL-10-/- C57BL/6 mouse model of ulcerative colitis assessed as inhibition ratio of IL-6 mRNA expression in colon tissue at 50 mg/kg, IG via gavage and measured after 8 weeks by RT-qPCR analysis relative to control; type: functional; parameters: scale not given: the % may be the effect or the level left
Mus musculus [6] = assay: Antiinflammatory activity against DSS-induced C57BL/6 mouse model of acute ulcerative colitis assessed as inhibition ratio of IL-6 mRNA expression in colon tissue at 50 mg/kg, IG via gavage measured after 7 days by RT-qPCR analysis relative to control; type: functional; parameters: scale not given: the % may be the effect or the level left; settings: time 7 day
Mus musculus [7] = assay: Antiinflammatory activity against IL-10-/- C57BL/6 mouse model of ulcerative colitis assessed as inhibition ratio of IL-23 mRNA expression in colon tissue at 50 mg/kg, IG via gavage and measured after 8 weeks by RT-qPCR analysis relative to control; type: functional; parameters: scale not given: the % may be the effect or the level left
Mus musculus [8] = assay: Anti-ulcerative colitis activity in IL-10-/- C57BL/6 mouse model of ulcerative colitis assessed as colon length recovery ratio at 50 mg/kg, IG via gavage for 8 weeks relative to control; type: functional
Mus musculus [9] = assay: Antiinflammatory activity against DSS-induced C57BL/6 mouse model of acute ulcerative colitis assessed as inhibition ratio of TNF-alpha mRNA expression in colon tissue at 50 mg/kg, IG via gavage measured after 7 days by RT-qPCR analysis relative to control; type: functional; parameters: scale not given: the % may be the effect or the level left; settings: time 7 day
Mus musculus [10] = assay: Antiinflammatory activity against IL-10-/- C57BL/6 mouse model of ulcerative colitis assessed as inhibition ratio of TNF-alpha mRNA expression in colon tissue at 50 mg/kg, IG via gavage and measured after 8 weeks by RT-qPCR analysis relative to control; type: functional; parameters: scale not given: the % may be the effect or the level left
Mus musculus [11] = assay: Antiinflammatory activity against IL-10-/- C57BL/6 mouse model of ulcerative colitis assessed as inhibition ratio of IL-1beta protein expression at 50 mg/kg, IG via gavage and measured after 8 weeks by ELISA relative to control; type: functional; parameters: scale not given: the % may be the effect or the level left
Mus musculus [12] = assay: Antiinflammatory activity against IL-10-/- C57BL/6 mouse model of ulcerative colitis assessed as inhibition ratio of IL-6 protein expression at 50 mg/kg, IG via gavage and measured after 8 weeks by ELISA relative to control; type: functional; parameters: scale not given: the % may be the effect or the level left
Mus musculus [13] = assay: Antiinflammatory activity against DSS-induced C57BL/6 mouse model of acute ulcerative colitis assessed as inhibition ratio of IL-1beta protein expression at 50 mg/kg, IG via gavage measured after 7 days by ELISA relative to control; type: functional; parameters: scale not given: the % may be the effect or the level left; settings: time 7 day
Mus musculus [14] = assay: Antiinflammatory activity against IL-10-/- C57BL/6 mouse model of ulcerative colitis assessed as inhibition ratio of TNF-alpha protein expression at 50 mg/kg, IG via gavage and measured after 8 weeks by ELISA relative to control; type: functional; parameters: scale not given: the % may be the effect or the level left
Mus musculus [15] = assay: Anti-ulcerative colitis activity in IL-10-/- C57BL/6 mouse ulcerative colitis model assessed as animal survival at 50 mg/kg, IG via gavage for 8 weeks; type: functional, organism-based
Mus musculus [16] = assay: Antiinflammatory activity against IL-10-/- C57BL/6 mouse model of ulcerative colitis assessed as inhibition ratio of IL-23 protein expression at 50 mg/kg, IG via gavage and measured after 8 weeks by ELISA relative to control; type: functional; parameters: scale not given: the % may be the effect or the level left
Mus musculus [17] = assay: Anti-ulcerative colitis activity in IL-10-/- C57BL/6 mouse model of ulcerative colitis assessed as histopathological score recovery ratio at 50 mg/kg, IG via gavage for 8 weeks relative to control; type: functional
Mus musculus [18] = assay: Antiinflammatory activity against DSS-induced C57BL/6 mouse model of acute ulcerative colitis assessed as inhibition ratio of TNF-alpha protein expression at 50 mg/kg, IG via gavage measured after 7 days by ELISA relative to control; type: functional; parameters: scale not given: the % may be the effect or the level left; settings: time 7 day
Mus musculus [19] = assay: Antiinflammatory activity against DSS-induced C57BL/6 mouse model of acute ulcerative colitis assessed as inhibition ratio of IL-6 protein expression at 50 mg/kg, IG via gavage measured after 7 days by ELISA relative to control; type: functional; parameters: scale not given: the % may be the effect or the level left; settings: time 7 day
Mus musculus [20] = assay: Antiinflammatory activity against IL-10-/- C57BL/6 mouse model of ulcerative colitis assessed as inhibition ratio of IL-1beta mRNA expression in colon tissue at 50 mg/kg, IG via gavage and measured after 8 weeks by RT-qPCR analysis relative to control; type: functional; parameters: scale not given: the % may be the effect or the level left
Mus musculus [21] = assay: Anti-ulcerative colitis activity against DSS-induced ulcerative colitis C57BL/6 mouse model assessed as reduction in DAI recovery score ratio at 50 mg/kg, IG via gavage administered for 7 days and measured everyday relative to control; type: functional; parameters: scale not given: the % may be the effect or the level left; settings: time 7 day
Mus musculus [22] = assay: Anti-ulcerative colitis activity against DSS-induced ulcerative colitis C57BL/6 mouse model assessed as body weight recovery rate at 50 mg/kg, IG via gavage administered for 7 days and measured everyday relative to control; type: functional; settings: time 7 day
Mus musculus [23] = assay: Anti-ulcerative colitis activity against DSS-induced ulcerative colitis C57BL/6 mouse model assessed as reduction in DAI score at 50 mg/kg, IG via gavage administered for 7 days and measured everyday (reference value: 4.0); type: functional; settings: time 7 day
Mus musculus [24] = assay: Anti-ulcerative colitis activity in DSS-induced C57BL/6 mouse ulcerative colitis model assessed as colon length recovery ratio at 50 mg/kg, IG via gavage measured after 7 days relative to control; type: functional; settings: time 7 day
Mus musculus [25] = assay: Antiinflammatory activity against DSS-induced C57BL/6 mouse model of acute ulcerative colitis assessed as inhibition of IL-23 mRNA expression in colon tissue administered intragastrically via gavage measured after 7 days by RT-qPCR analysis; type: functional, organism-based; settings: route ig, time 7.0 day, DDE = dose-dependent effect

SMILES: COc1cc2c(cc1OC)C(c1ccc(F)cc1)CC2=O (stereo not given)
- inhibition at 50 µM (RAW264.7 [1]): 80%

SMILES: COc1cc(OC)c2c(c1)C(=O)CC2c1ccc(SC)cc1 (stereo not given)
- inhibition at 50 µM (RAW264.7 [1]): 79.8%
- IC50 (RAW264.7 [2]): 3.92 µM

SMILES: COc1cc(OC)c2c(c1)C(=O)CC2c1ccccc1C (stereo not given)
- inhibition at 50 µM (RAW264.7 [1]): 77.6%
- IC50 (RAW264.7 [2]): 4 µM

SMILES: COc1cc(C2CC(=O)c3cc(OC)c(OC)c(OC)c32)cc(OC)c1OC (stereo not given)
- inhibition at 2.6 µM (Peritoneal macrophage): 55%

SMILES: COc1cc(OC)c2c(c1)C(=O)CC2c1ccc2c(c1)OCO2 (stereo not given)
- inhibition at 50 µM (RAW264.7 [1]): 15.5%

SMILES: COc1ccc(C2c3c(OC)cc(OC)cc3C(=O)C2c2cc(OC)cc(OC)c2)cc1 (stereo not given)
- inhibition at 50 µM (RAW264.7 [1]): 62.3%
- IC50 (RAW264.7 [2]): 46 µM

SMILES: COc1cc(OC)c2c(c1)C(=O)CC2c1ccc(OC(F)(F)F)cc1 (stereo not given)
- inhibition at 50 µM (RAW264.7 [1]): 4.4%

SMILES: COc1cc(OC)c2c(c1)C(=O)CC2c1ccc(F)cc1 (stereo not given)
- inhibition at 50 µM (RAW264.7 [1]): -4.2%

SMILES: Nc1ccc(O)c(C(=O)O)c1 [MESALAMINE]
- Activity (Mus musculus [3]): 27.5%
- Activity (Mus musculus [4]): 38.3%
- Activity (Mus musculus [5]): 46.3%
- Activity (Mus musculus [6]): 46%
- Activity (Mus musculus [7]): 54.7%
- Activity (Mus musculus [8]): 32.4%
- Activity (Mus musculus [9]): 48.7%
- Activity (Mus musculus [10]): 30.1%
- Activity (Mus musculus [11]): 44%
- Activity (Mus musculus [12]): 54.9%
- Activity (Mus musculus [13]): 47.3%
- Activity (Mus musculus [14]): 42.2%
- Activity (Mus musculus [15]): Active
- Activity (Mus musculus [16]): 55.7%
- Activity (Mus musculus [17]): 44.3%
- Activity (Mus musculus [18]): 43.2%
- Activity (Mus musculus [19]): 53.5%
- Activity (Mus musculus [20]): 36.9%
- Activity (Mus musculus [21]): 25%
- Activity (Mus musculus [22]): 38.3%
- Activity (Mus musculus [23]): 3
- Activity (Mus musculus [24]): 39.4%
- Activity (Mus musculus [25]): Dde

SMILES: Cc1ccc(C2CC(=O)c3cc4c(cc32)OCO4)cc1 (stereo not given)
- inhibition at 50 µM (RAW264.7 [1]): 66.2%
- IC50 (RAW264.7 [2]): 43.6 µM

SMILES: COc1cc2c(cc1OC)C(c1ccc(C)cc1)CC2=O (stereo not given)
- inhibition at 50 µM (RAW264.7 [1]): 55.2%
- IC50 (RAW264.7 [2]): 47.3 µM

SMILES: COc1cc(OC)c2c(c1)C(=O)CC2c1ccc(Br)cc1 (stereo not given)
- inhibition at 50 µM (RAW264.7 [1]): -88.5%

SMILES: COc1cc(OC)c2c(c1)C(=O)CC2c1ccc(OC(C)(F)F)cc1 (stereo not given)
- inhibition at 50 µM (RAW264.7 [1]): 76.5%
- IC50 (RAW264.7 [2]): 4.51 µM

SMILES: COc1ccc([C@@H]2CC(=O)c3cc(OC)cc(OC)c32)cc1
- IC50 (RAW264.7 [2]): > 50 µM

SMILES: COc1ccc2c(c1)C(=O)CC2c1ccc(F)cc1 (stereo not given)
- inhibition at 50 µM (RAW264.7 [1]): 6.5%

SMILES: COc1cc(OC)c2c(c1)C(=O)CC2c1csc2ccccc12 (stereo not given)
- inhibition at 50 µM (RAW264.7 [1]): 5.9%

SMILES: COc1cc(OC)c2c(c1)C(=O)CC2c1ccc(Cl)cc1 (stereo not given)
- inhibition at 50 µM (RAW264.7 [1]): -98.9%

SMILES: COc1cc(OC)c2c(c1)C(=O)CC2c1cccs1 (stereo not given)
- inhibition at 50 µM (RAW264.7 [1]): 5.6%

SMILES: COc1ccc(C2CC(=O)c3cc(OC)cc(OC)c32)cc1 (stereo not given)
- inhibition at 50 µM (RAW264.7 [1]): 82.6%
- IC50 (RAW264.7 [2]): 1.26 µM

SMILES: COc1cc(OC)c2c(c1)C(=O)CC2c1ccc2cc(OC)ccc2c1 (stereo not given)
- inhibition at 50 µM (RAW264.7 [1]): 4.6%
- IC50 (RAW264.7 [2]): 51.5 µM

SMILES: O=C1CC(c2ccc(F)cc2)c2cc3c(cc21)OCO3 (stereo not given)
- inhibition at 50 µM (RAW264.7 [1]): 5.3%

SMILES: COc1cc(OC)cc(C2CC(=O)c3cc(OC)ccc32)c1 (stereo not given)
- inhibition at 50 µM (RAW264.7 [1]): 0.2%
- IC50 (RAW264.7 [2]): 3.52 µM

SMILES: COc1cc(OC)c2c(c1)C(=O)CC2c1ccc(C)cc1 (stereo not given)
- inhibition at 50 µM (RAW264.7 [1]): 49.9%
- IC50 (RAW264.7 [2]): 48.3 µM

— ChEMBL document CHEMBL5154881, “Discovery of First-in-Class TAK1-MKK3 Protein-Protein Interaction (PPI) Inhibitor (R)-STU104 for the Treatment of Ulcerative Colitis through Modulating TNF-α Production” (J Med Chem, 2022)
